How the values were obtained:
DP-IV = DP-IV (Homo sapiens, UniProt P27487); assay: Inhibition / affinity for DP-IV; type: biochemical
DPIV = target: T1, DPIV (Rattus norvegicus, UniProt P14740); assay: DPIV assays on serum samples from rats; type: in vivo; conditions: rat serum 1 hour after treatment; Ala-Pro-paranitroanalide substrate, pH 8
T1 construct: from tissue; host or cells: rat serum
Experimental: Four rats were used in this experiment: two females (#3 and #9) and two males (#10 and #11). Blood and plasma samples were collected from rats 1 hour after being treated with Cyclohexylglycine-boroAla. The collected serum samples were evaluated for DPPIV activity of Cyclohexylglycine-boroAla as follows: • 1. 2 mg of Ala-Pro-paranitroanalide (substrate) was dissolved in 20 ml 0.1 M HEPES pH 8, 0.14 M NaCl (buffer). • 2. Serum samples were diluted into substrate solution in the wells of a microtiter plate. For each sample, 10 uL of serum was diluted into 150 μL of substrate. • 3. A reading of the A410 in each well was recorded immediately after the dilution of serum into substrate, and again after approximately 1 hour. The time of data acquisition for each reading is recorded in the data file by the microplate reader software.
The rate of absorbance change was obtained by subtracting the first reading from the second and dividing by the reaction time to give DeltaA410/hr. The DPIV activity was plotted in units of DeltaA410 hr^−1μ^−1.

[1] = In vivo regulation of glucose metabolism
NOD mice = assay: Incidence of diabetes in NOD mice upon treatment with DPIV inhibitors; type: in vivo
Experimental: The experiment was started on 8-10 week old NOD mice. The mice were kept under VAF/SPF conditions and fed everyday with either Val-boro-Pro (0.034 mg/kg) or Cyclohexyl-boro-Ala (0.34 mg/kg) for 60 days and then observed for the development of spontaneous diabetes. The mice were tested for the excretion of sugar in urine and considered positive for diabetes when sugar was detected in the urine.

[2] = in vivo, cited from earlier work
[3] = chronic (>5 days) treatment, alone

Sequence of DP-IV (P27487 whole entry): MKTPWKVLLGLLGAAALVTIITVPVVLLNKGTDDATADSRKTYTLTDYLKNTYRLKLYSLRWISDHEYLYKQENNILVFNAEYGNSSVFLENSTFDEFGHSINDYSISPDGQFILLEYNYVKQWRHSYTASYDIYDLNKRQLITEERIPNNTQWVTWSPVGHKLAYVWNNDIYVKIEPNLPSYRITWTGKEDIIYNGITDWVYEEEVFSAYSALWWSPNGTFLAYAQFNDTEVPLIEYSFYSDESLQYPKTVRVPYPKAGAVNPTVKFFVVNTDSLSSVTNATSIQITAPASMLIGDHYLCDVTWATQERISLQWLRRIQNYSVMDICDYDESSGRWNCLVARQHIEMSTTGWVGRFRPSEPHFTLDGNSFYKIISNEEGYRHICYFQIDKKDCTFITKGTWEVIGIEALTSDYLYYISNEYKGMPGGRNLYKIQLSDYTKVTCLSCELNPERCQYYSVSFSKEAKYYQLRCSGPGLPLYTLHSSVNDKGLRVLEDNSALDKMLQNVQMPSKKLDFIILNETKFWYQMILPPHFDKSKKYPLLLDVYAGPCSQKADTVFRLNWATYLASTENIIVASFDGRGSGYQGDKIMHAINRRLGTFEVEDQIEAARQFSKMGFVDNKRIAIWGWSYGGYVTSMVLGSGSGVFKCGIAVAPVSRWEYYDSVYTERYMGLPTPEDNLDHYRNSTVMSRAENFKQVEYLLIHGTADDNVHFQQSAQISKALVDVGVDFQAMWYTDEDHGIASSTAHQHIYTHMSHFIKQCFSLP
T1 sequence (P14740 38-767 limits assumed): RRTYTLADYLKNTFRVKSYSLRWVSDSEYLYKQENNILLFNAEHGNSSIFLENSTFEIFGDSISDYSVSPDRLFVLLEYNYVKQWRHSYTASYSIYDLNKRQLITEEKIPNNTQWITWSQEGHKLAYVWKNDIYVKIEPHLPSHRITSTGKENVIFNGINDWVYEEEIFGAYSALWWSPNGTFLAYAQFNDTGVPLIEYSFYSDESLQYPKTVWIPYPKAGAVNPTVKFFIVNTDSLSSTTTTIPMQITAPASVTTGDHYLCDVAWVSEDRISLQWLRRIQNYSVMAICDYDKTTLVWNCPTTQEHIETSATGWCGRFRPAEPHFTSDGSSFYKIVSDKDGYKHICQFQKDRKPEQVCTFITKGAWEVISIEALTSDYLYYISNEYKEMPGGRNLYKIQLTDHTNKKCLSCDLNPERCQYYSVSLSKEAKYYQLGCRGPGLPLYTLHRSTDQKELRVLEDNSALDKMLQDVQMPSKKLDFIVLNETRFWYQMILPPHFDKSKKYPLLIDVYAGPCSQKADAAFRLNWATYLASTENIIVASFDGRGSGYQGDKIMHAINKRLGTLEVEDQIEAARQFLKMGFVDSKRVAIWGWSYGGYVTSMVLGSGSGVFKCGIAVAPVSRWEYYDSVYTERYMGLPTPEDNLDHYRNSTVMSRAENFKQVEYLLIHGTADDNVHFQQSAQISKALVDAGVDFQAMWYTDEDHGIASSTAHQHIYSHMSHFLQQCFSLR

CC(NC(=O)OC(C)(C)C)C(=O)N1CCCC1B(O)O (stereo not drawn) [Boc-blocked Ala-boroPro, Boc-Ala-boroPro]
affinity for DP-IV (DP-IV): no affinity

CC(NC(=O)C(N)C1CCCCC1)B(O)O (stereo not drawn) [Cyclohexylglycine-boroAla]
DPIV enzyme activity in serum (DPIV): significantly decreased

O=C(C1CCCN1)N1CCCC1B(O)O (stereo not drawn) [Pro-boro-Pro]
fasting blood sugars [1, 3]: lowers
glycemic excursion to oral glucose challenge [1, 3]: lowers
response to a subtherapeutic dose of GLP-1 ([1]; single injection): potentiate the response
glucose control ([1]; single injection, alone): alone sufficient to improve glucose control

CC(C)[C@H](N)C(=O)N1CCC[C@H]1B(O)O [Val-boro-Pro]
recovery of mice that showed signs of diabetes (NOD mice; 0.034 mg/kg fed every day for 60 days): some of the mice that showed signs of diabetes got better and recovered
incidence of Diabetes (NOD mice; 0.034 mg/kg fed every day for 60 days, end of the experiment): low incidence of Diabetes
general health compared to the other groups (NOD mice; end of the experiment): generally good health

L-Ala-L-boroPro-pinacol
extent of DP-IV inhibition, silica gel fractions compared (DP-IV; early fraction vs later fractions at equal concentrations): inhibits DP-IV to a greater extent than later fractions

glucagon-like peptide-1 [GLP-1]
degradation ([2]; iv): extensively degraded
degradation without inhibitor ([2]; sc): rapidly degraded in a time-dependent manner
